Data set [1] in a line: Cytotoxicity assay (resazurin). It is filed as cell-based, human. The following applies: human; HEK293 cells; mean (n = 2); highest dose tested 32 μg/mL; read-out: Cytotoxicity (concentration of compound at 50% cytotoxicity, IC50). (Resazurin is reduced to fluorescent resorufin, in cell work by metabolically active cells.)
In data set [2] the test system is Staphylococcus aureus ATCC 25923 or ATCC 29213. Kind of data set: MIC, broth dilution (CA-SFM). It is filed as cell-based. Particulars: Staphylococcus aureus ATCC 25923 or ATCC 29213; mean (n = 3); read-out: MIC S. a.
Data set [3] deals with MRSA ATCC 43300. Kind of data set: MIC, CO-ADD broth microdilution. Particulars: Staphylococcus aureus, read-out: MIC MRSA. The format is cell-based, Staphylococcus aureus. For orientation: In broth dilution the organism is exposed to a series of concentrations in liquid medium.
Data set [4] has as its system human red blood cells. Kind of data set: Hemolytic assay. It is filed as cell-based. The following applies: mean (n = 2). The procedure: Human whole blood was washed three times with 3 volumes of 0.9% NaCl and then resuspended in same to a concentration of 0.5 × 10^8 cells/mL, as determined by manual cell count in a Neubauer hemocytometer. The washed cells were then added to the 384-well compound-containing plates for a final volume of 50 μL. After a 10 min shake on a plate shaker, the plates were then incubated for 1 h at 37 °C. After incubation, the plates were centrifuged at 1000× g for 10 min to pellet cells and debris; 25 μL of the supernatant was then transferred to a polystyrene 384-well assay plate. Hemolysis was determined by measuring the supernatant absorbance at […] (OD405). The absorbance was measured using a Tecan M1000 Pro monochromator plate reader. HC10 and HC50 (concentration at 10% and 50% hemolysis, respectively) were calculated by curve fitting the inhibition values vs. log (concentration) using a sigmoidal dose–response function with variable fitting values for top, bottom and slope.

Data set [5] concerns Pseudomonas aeruginosa PAO1 or ATCC 27853. Description: MIC, broth dilution (CA-SFM). The format is cell-based. The following applies: mean (n = 3).
Data set [6] has as its system Escherichia coli ATCC 25922. Description: MIC, CO-ADD broth microdilution. The following applies: ATCC25922, mean (n = 2). It is filed as cell-based.
Data set [7] relates to Acinetobacter baumannii ATCC19606. Kind of data set: MIC, CO-ADD broth microdilution. It is filed as cell-based. Particulars: mean (n = 2).
The subject of data set [8] is Klebsiella pneumoniae ATCC700603. Kind of data set: MIC, CO-ADD broth microdilution. The format is cell-based. Particulars: mean (n = 2).
Data set [9] deals with Cryptococcus neoformans ATCC208821. Kind of data set: Antifungal MIC, CO-ADD. The format is cell-based. The following applies: ATCC208821, Cryptococcus neoformans ATCC208821, mean (n = 2). How it is done: (§1) For the antifungal assay, fungi strains were cultured for 3 days on YPD agar at 30 °C. A yeast suspension of 1 × 10^6 to 5 × 10^6 CFU/mL was prepared from five colonies. These stock suspensions were diluted with yeast nitrogen base (YNB) (Becton Dickinson, 233520) broth to a final concentration of 2.5 × 10^3 CFU/mL. […] Plates were covered and incubated at 35 °C for 36 h without shaking. C. albicans MICs were determined by measuring the absorbance at OD530. […] Fluconazole was used as a positive fungal inhibitor standard for C. albicans and C. neoformans. […] Quality control (QC) of the assays was determined by antimicrobial controls and Z’-factor (using positive and negative controls).

Data set [10] has as its system Candida albicans ATCC90028. Description: Antifungal MIC, CO-ADD. The format is cell-based. The following applies: mean (n = 2). How it is done: as §1

Values after ≈ are worked out from the molar mass of the structure shown. Where two headings read alike, the source gives them in different places.

In the case of `O=C(CC(c1ccccc1)c1ccccc1)NCCCNCCCCCCCCCCCCNCCCNC(=O)CC(c1ccccc1)c1ccccc1.O=C(O)C(F)(F)F.O=C(O)C(F)(F)F` [Compound 15f, N^1,N^12-Bis(3-(3,3-diphenylpropanamido)propyl)dodecane-1,12-diaminium 2,2,2-trifluoroacetate], in [1], the IC50 at 20 h stood at 5.46 µM. Moreover, the MIC was 1.56 µM in [2]; not above 0.26 µM in [3] (MRSA ATCC 43300, mean (n = 2)); 200 µM in data set [5]; 2.1 µM in data set [6]; 1 µM in data set [7]; more than 33.4 µM in data set [8]. Also, the MIC in [9] was not above 0.28 µM; in data set [10] it was 8.34 µM. Moreover, the “Hemolysis (HC10, concentration at 10% hemolytic activity)” value in [4] was 1.17 µM.
As to `O=C(CC(c1ccccc1)(c1ccccc1)c1ccccc1)NCCCNCCCCCCNCCCNC(=O)CC(c1ccccc1)(c1ccccc1)c1ccccc1.O=C(O)C(F)(F)F.O=C(O)C(F)(F)F` [Compound 18b, N^1,N^6-Bis(3-(3,3,3-triphenylpropanamido)propyl)hexane-1,6-diaminium 2,2,2-trifluoroacetate], in data set [1], the IC50 at 20 h turned out to be 15.7 µM. In addition, the MIC in [2] was 1.56 µM; in data set [3] (MRSA ATCC 43300, mean (n = 2)) it was less than 0.24 µM; in data set [5], 50 µM; in [6] it was 0.97 µM; in [7], 7.8 µM; in data set [8], 31.2 µM. The MIC worked out at 31.2 µM in [9] and 7.79 µM in data set [10]. The “Hemolysis (HC10, concentration at 10% hemolytic activity)” value in data set [4] was 0.985 µM.
In the case of `O=C(NCCCNCCCCCCCCCCNCCCNC(=O)C(c1ccccc1)(c1ccccc1)c1ccccc1)C(c1ccccc1)(c1ccccc1)c1ccccc1.O=C(O)C(F)(F)F.O=C(O)C(F)(F)F` [Compound 17e, N^1,N^10-Bis(3-(2,2,2-triphenylacetamido)propyl)decane-1,10-diaminium 2,2,2-trifluoroacetate], in data set [1], the IC50 at 20 h is more than 30.3 µM. For the same compound, the MIC is 3.12 µM in data set [2]; less than 0.23 µM in data set [3] (MRSA ATCC 43300, mean (n = 2)); 300 µM in data set [5]; less than 0.23 µM in [6]; more than 30.3 µM in data set [7]; more than 30.3 µM in data set [8]. Besides, the minimum inhibitory concentration (MIC) in data set [9] was less than 0.23 µM; in data set [10] it was more than 30.3 µM. In addition, the “Hemolysis (HC10, concentration at 10% hemolytic activity)” value in data set [4] is not above 0.234 µM.
For the compound `O=C(CCC(=O)NCCC(c1ccccc1)c1ccccc1)NCCCNCCCCCCCCCCNCCCNC(=O)CCC(=O)NCCC(c1ccccc1)c1ccccc1.O=C(O)C(F)(F)F.O=C(O)C(F)(F)F` [Compound 16e, N^1,N^10-Bis(3-(4-((3,3-diphenylpropyl)amino)-4-oxobutanamido)propyl)decane-1,10-diaminium 2,2,2-trifluoroacetate], the IC50 at 20 h in data set [1] is 17.3 µM. For the same compound, the MIC is 12.5 µM in data set [2]; not above 0.23 µM in data set [3] (MRSA ATCC 43300, mean (n = 2)); 200 µM in data set [5]; 14.5 µM in data set [6]; 29.1 µM in data set [7]; 29.1 µM in data set [8]. Further, the MIC in data set [9] was not above 0.28 µM; in data set [10], 29.1 µM. Further, the “Hemolysis (HC10, concentration at 10% hemolytic activity)” value in data set [4] turned out to be 17.9 µM.
In the case of `O=C(CCC(=O)NCCC(c1ccccc1)c1ccccc1)NCCCNCCCCCCCCNCCCNC(=O)CCC(=O)NCCC(c1ccccc1)c1ccccc1.O=C(O)C(F)(F)F.O=C(O)C(F)(F)F` [Compound 16d, N^1,N^8-Bis(3-(4-((3,3-diphenylpropyl)amino)-4-oxobutanamido)propyl)octane-1,8-diaminium 2,2,2-trifluoroacetate], the IC50 at 20 h in [1] was more than 29.8 µM. The minimum inhibitory concentration (MIC) in data set [2] is 12.5 µM; in [3] (MRSA ATCC 43300, mean (n = 2)) it was not above 0.23 µM; in data set [5] it was 300 µM; in data set [6], more than 29.8 µM; in [7] it was more than 29.8 µM; in [8], more than 29.8 µM. The MIC in data set [9] and in data set [10] was more than 29.8 µM in each case. The “Hemolysis (HC10, concentration at 10% hemolytic activity)” value in data set [4] was more than 29.8 µM.
Regarding `CN[C@H](CC(C)C)C(=O)N[C@H]1C(=O)N[C@@H](CC(N)=O)C(=O)N[C@H]2C(=O)N[C@H]3C(=O)N[C@H](C(=O)N[C@H](C(=O)O)c4cc(O)cc(O)c4-c4cc3ccc4O)[C@H](O)c3ccc(c(Cl)c3)Oc3cc2cc(c3O[C@@H]2O[C@H](CO)[C@@H](O)[C@H](O)[C@H]2O[C@H]2C[C@](C)(N)[C@H](O)[C@H](C)O2)Oc2ccc(cc2Cl)[C@H]1O` [vancomycin, reference compound], the MIC in data set [3] came to 0.7 µM (≈ 1.01 µg/mL).
Take `O=C(CCC(=O)NCCCc1ccccc1)NCCCNCCCCCCCNCCCNC(=O)CCC(=O)NCCCc1ccccc1` [Compound 14c, N^1,N^7-Bis(3-(4-oxo-4-((3-phenylpropyl)amino)butanamido)propyl)heptane-1,7-diaminium 2,2,2-trifluoroacetate]: the MIC in [2] was 200 µM (≈ 136 µg/mL); in data set [3] (MRSA ATCC 43300, mean (n = 2)) it was more than 35.3 µM; in data set [5] it was more than 200 µM; in [6], more than 35.3 µM; in data set [7] it was more than 35.3 µM; in data set [8], more than 35.3 µM. The MIC in [9] and in data set [10] was more than 35.3 µM in each case.
With `O=C(CC(c1ccccc1)(c1ccccc1)c1ccccc1)NCCCNCCCCNCCCNC(=O)CC(c1ccccc1)(c1ccccc1)c1ccccc1.O=C(O)C(F)(F)F.O=C(O)C(F)(F)F` [Compound 18a, N^1,N^4-Bis(3-(3,3,3-triphenylpropanamido)propyl)butane-1,4-diaminium 2,2,2-trifluoroacetate], the IC50 at 20 h in data set [1] stood at 18.3 µM. The MIC in data set [2] was 3.12 µM; in data set [3] (MRSA ATCC 43300, mean (n = 2)) it was less than 0.25 µM; in data set [5], 25 µM; in [6] it was 0.5 µM; in [7], 4 µM; in data set [8], 32 µM. Further, the MIC in data set [9] was 32 µM; in data set [10] it was 8 µM. The “Hemolysis (HC10, concentration at 10% hemolytic activity)” value in data set [4] was found to be 1.58 µM.
In the case of `O=C(N[C@H](CO)[C@H](O)c1ccc([N+](=O)[O-])cc1)C(Cl)Cl` [chloramphenicol, reference compound], the MIC in data set [2] fell in the range of 1.5 to 3 µM (≈ 0.485 to 0.969 µg/mL).
Consider `O=C(CCC(=O)NCCCc1ccccc1)NCCCNCCCCCCNCCCNC(=O)CCC(=O)NCCCc1ccccc1` [Compound 14b, N^1,N^6-Bis(3-(4-oxo-4-((3-phenylpropyl)amino)butanamido)propyl)hexane-1,6-diaminium 2,2,2-trifluoroacetate], for which the MIC in data set [2] was more than 200 µM; in [3] (MRSA ATCC 43300, mean (n = 2)), more than 35.8 µM; in data set [5], more than 200 µM; in [6], more than 35.8 µM; in data set [7] it was more than 35.8 µM; in data set [8], more than 35.8 µM. The MIC in data set [9] and in data set [10] was more than 35.8 µM in each case.
`OC(Cn1cncn1)(Cn1cncn1)c1ccc(F)cc1F` [fluconazole, reference compound]: the values for the MIC in [9] and in data set [10] were 26 µM (≈ 7.96 µg/mL) and 0.4 µM (≈ 0.123 µg/mL), respectively.
For the compound `CC/C(=C(\c1ccccc1)c1ccc(OCCN(C)C)cc1)c1ccccc1` [Tamoxifen, reference compound], the IC50 at 20 h in data set [1] was 24 µM.
In [5], `C[C@H]1c2cccc(O)c2C(=O)C2=C(O)[C@]3(O)C(=O)C(C(N)=O)=C(O)[C@@H](N(C)C)[C@@H]3[C@@H](O)[C@@H]21` [doxycycline, reference compound] showed an MIC of 90 µM (≈ 40 µg/mL).
`[H]/N=C(/N)N[C@H]1[C@H](O)[C@@H](O)[C@H](O[C@@H]2O[C@@H](C)[C@](O)(C=O)[C@H]2O[C@@H]2O[C@@H](CO)[C@H](O)[C@@H](O)[C@@H]2NC)[C@@H](N/C(N)=N\[H])[C@@H]1O` [streptomycin, reference compound]: the MIC in data set [2] and in data set [5] was 21.5 µM (≈ 12.5 µg/mL) throughout.
As to `O=C(CCc1ccccc1)NCCCNCCCCNCCCNC(=O)CCc1ccccc1` [Compound 13a, N^1,N^4-Bis(3-(3-phenylpropanamido)propyl)butane-1,4-diaminium 2,2,2-trifluoroacetate], the MIC was 720 µM (≈ 336 µg/mL) in data set [2]; more than 46.1 µM in data set [3] (MRSA ATCC 43300, mean (n = 2)); 720 µM (≈ 336 µg/mL) in [5]; more than 46.1 µM in [6]; more than 46.1 µM in data set [7]; more than 46.1 µM in [8]. Moreover, the MIC in [9] and in data set [10] was more than 46.1 µM in each case.

In general, MIC refers to the lowest concentration found to suppress growth.
